Assay results taken from patent US11555041B2, “Bridged bicyclic inhibitors of menin-MLL and methods of use” (Kura Oncology, Inc., priority 2016, dated 2023).
Like-named read-outs stand apart in the source and are kept apart here.

Legend:
MV4;11 cells = experiment: MTT cell proliferation assay; type: cell-based; conditions: Homo sapiens
Experimental: The ability of a compound of the present disclosure to inhibit the growth of cells was tested in MLL leukemia cell lines (e.g., MV4;11) using the MTT cell proliferation assay (ATCC® 30-1010K). […] Cells were plated at about 1×10^5 cells per well in a 96-well plate. A compound of the present disclosure was added at a concentration up to about 2 μM with seven, 2-fold serial dilutions for each compound. Cells were incubated at 37° C. for 72 hours, then cells in the control wells were counted. Media was changed to restore viable cell numbers to the original concentration, and compounds were re-supplied. Proliferation was measured 96 hours later using MTT reagents, as per kit instructions. […] As used in the Examples and Figures herein, Compound A refers to Compound 3 in Table 1.

[1] = target: T1, menin-MLL interaction (Menin MLL 4-43) (Homo sapiens, UniProt O00255); experiment: Fluorescence polarization (FP) competition assay; type: binding
T1 sequence (O00255 1-610): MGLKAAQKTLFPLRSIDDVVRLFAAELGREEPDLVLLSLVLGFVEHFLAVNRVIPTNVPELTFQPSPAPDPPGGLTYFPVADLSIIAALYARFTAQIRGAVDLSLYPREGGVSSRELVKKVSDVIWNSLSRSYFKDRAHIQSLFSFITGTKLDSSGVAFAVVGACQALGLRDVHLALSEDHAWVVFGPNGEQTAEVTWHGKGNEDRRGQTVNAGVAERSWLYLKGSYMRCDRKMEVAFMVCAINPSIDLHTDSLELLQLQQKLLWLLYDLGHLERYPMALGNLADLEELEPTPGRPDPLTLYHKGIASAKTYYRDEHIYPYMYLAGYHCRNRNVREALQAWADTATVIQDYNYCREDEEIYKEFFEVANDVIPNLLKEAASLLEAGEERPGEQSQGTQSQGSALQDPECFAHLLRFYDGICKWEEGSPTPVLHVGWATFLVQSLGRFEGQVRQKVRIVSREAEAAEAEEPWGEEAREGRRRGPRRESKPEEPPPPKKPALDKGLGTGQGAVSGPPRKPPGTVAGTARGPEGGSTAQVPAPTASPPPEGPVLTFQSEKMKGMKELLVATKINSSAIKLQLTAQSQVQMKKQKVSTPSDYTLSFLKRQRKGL

[2] = tested on: MV4;11 (human leukemia) tumor; experiment: Efficacy study in mouse xenograft tumor model; type: in vivo; conditions: female nude mice, subcutaneous MV4;11, oral gavage 150 mg/kg bid
Experimental: Immunocompromised 8-10 week-old female nude (nu/nu) mice were used for in vivo efficacy studies in accordance with IACUC guidelines. Human MV4;11 leukemia cells available from ATCC were implanted subcutaneously into female nude mice (5×10^6 cells/mouse). When the tumor reached a size of approximately 150 to 250 mm^3, the tumor-bearing mice were randomly assigned to a vehicle control or a compound treatment group (8 mice per group). Mice in the treatment group were administered a compound of the present disclosure by oral gavage (150 mg/kg, bid). Subcutaneous tumor volume and mouse body weight were measured twice weekly. Tumor volumes were calculated by measuring two perpendicular diameters with calipers (V=(length×width^2)/2). […] As used in the Examples and Figures herein, Compound B refers to Compound 82 in Table 1.

[3] = fluorescence polarization assay, read-out: Menin MLL 4-43 IC50
[4] = measured in accordance with Example 8, read-out: IC50 value (ability of the compound to disrupt the menin-MLL interaction)

Row | SMILES | IC50 [1, 3] | further results
1 | CCC(=O)NC12CC(Cn3c(C#N)cc4c(C)c(CN5CCC(Nc6ncnc7sc(CC(F)(F)F)cc67)CC5)ccc43)(C1)C2 [Compound 3] | 50 to 250 nM | GI50 (MV4;11 cells): 40 nM; IC50 [1, 4]: ≤ 50 nM; MV4;11 tumor growth (tumor volume) relative to vehicle control [2]: inhibited tumor growth and induced tumor regression
2 | Cc1c(CN2CCC(Nc3ncnc4sc(CC(F)(F)F)cc34)CC2)ccc2c1cc(C#N)n2CC12CC(NC(=O)C(N)CC(F)(F)F)(C1)C2 (stereo not drawn) [Compound 74] | 250 to 1000 nM | –
3 | CCC(=O)NC12CC(Cn3c(C#N)cc4cc(CN5CCC(Nc6ncnc7sc(CC(F)(F)F)cc67)CC5)c(O)cc43)(C1)C2 [Compound 75] | 50 to 250 nM | –
4 | CNC(CO)C(=O)NC12CC(Cn3c(C#N)cc4c(C)c(CN5CCC(Nc6ncnc7sc(CC(F)(F)F)cc67)CC5)ccc43)(C1)C2 (stereo not drawn) [Compound 76] | < 50 nM | –
5 | Cc1c(CN2CCC(Nc3ncnc4sc(CC(F)(F)F)cc34)CC2)ccc2c1cc(C#N)n2CC12CC(NC(=O)Cc3ccccc3)(C1)C2 [Compound 77] | 250 to 1000 nM | –
6 | Cc1c(CN2CCC(Nc3ncnc4sc(CC(F)(F)F)cc34)CC2)ccc2c1cc(C#N)n2CC12CC(NC(=O)Cc3cccc(N)c3)(C1)C2 [Compound 78] | 250 to 1000 nM | –
7 | CNc1nc(NC2CCN(Cc3ccc4c(cc(C#N)n4CC45CC(NC(=O)Cc6cccc(N)c6)(C4)C5)c3C)CC2)c2cc(CC(F)(F)F)sc2n1 [Compound 79] | < 50 nM | –
8 | CNc1nc(NC2CCN(Cc3ccc4c(cc(C#N)n4CC45CC(NC(=O)Cc6ccccc6N)(C4)C5)c3C)CC2)c2cc(CC(F)(F)F)sc2n1 [Compound 80] | < 50 nM | –
9 | CNc1nc(NC2CCN(Cc3ccc4c(cc(C#N)n4CC45CC(NC(C)=O)(C4)C5)c3C)CC2)c2cc(CC(F)(F)F)sc2n1 [Compound 82] | < 50 nM | IC50 [1, 4]: ≤ 50 nM; MV4;11 tumor growth (tumor volume) relative to vehicle control [2]: inhibited tumor growth and induced tumor regression
10 | Cc1nc(NC2CCN(Cc3ccc4c(cc(C#N)n4CC45CC(NC=O)(C4)C5)c3C)CC2)c2cc(CC(F)(F)F)sc2n1 [Compound 83] | < 50 nM | –
11 | CC(=O)NC12CC(Cn3c(C#N)cc4c(C)c(CN5CCC(Nc6nc(C)nc7sc(CC(F)(F)F)cc67)CC5)ccc43)(C1)C2 [Compound 84] | < 50 nM | –
12 | CNc1nc(NC2CCN(Cc3ccc4c(cc(C#N)n4CC45CC(NC=O)(C4)C5)c3C)CC2)c2cc(CC(F)(F)F)sc2n1 [Compound 85] | < 50 nM | –
13 | CCC(=O)NC12CC(Cn3c(C#N)cc4c(C)c(CN5CCC(Nc6nc(NC)nc7sc(CC(F)(F)F)cc67)CC5)ccc43)(C1)C2 [Compound 86] | < 50 nM | –
